Results reported in the supplement of paper PMC11061612.

How the values were obtained:
Assay in all cases: Bliss excess, mean over the matrix (fraction); higher = more synergy
8-MG-BA (Glioblastoma) = tested on: 8-MG-BA (Glioblastoma)
Outline: (§1)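 Cell lines grown in DMEM/F12 or RPMI with 10% FBS were plated in 1536-well plates and held 24 hours at 37°C, 5% CO2 before 72 hours of exposure to two-drug dose matrices, with DMSO typically at 0.2%. CellTiter-Glo 2.0 luminescence gave viability, which was converted to inhibition. Vehicle wells were set to 0 and blank wells to 1. Combination Emax is the second-highest inhibition in the matrix, and Bliss excess is the observed combination effect minus the expected EA + EB − EA·EB, where EA and EB are the single-agent effects.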

[1] = tested on: CAPAN-2 (Pancreatic Carcinoma)
Outline: as §1

[2] = tested on: COLO-824 (Breast Carcinoma)
Outline: as §1

FU97 (Gastric Carcinoma) = tested on: FU97 (Gastric Carcinoma)
Outline: as §1

GI-ME-N (Neuroblastoma) = tested on: GI-ME-N (Neuroblastoma)
Outline: as §1

[3] = tested on: HCC1954 (Breast Carcinoma)
Outline: as §1

Hs-445 (Non-Cancerous) = tested on: Hs-445 (Non-Cancerous)
Outline: as §1

IGR-37 (Melanoma) = tested on: IGR-37 (Melanoma)
Outline: as §1

[4] = tested on: JSC-1 (B-Cell Non-Hodgkin's Lymphoma)
Outline: as §1

[5] = tested on: KARPAS-422 (B-Cell Non-Hodgkin's Lymphoma)
Outline: as §1

[6] = tested on: MDST8 (Colorectal Carcinoma)
Outline: as §1

[7] = tested on: NCI-H1693 (Lung Adenocarcinoma)
Outline: as §1

[8] = tested on: NCI-H2066 (Squamous Cell Lung Carcinoma)
Outline: as §1

[9] = tested on: NCI-H2141 (Small Cell Lung Carcinoma)
Outline: as §1

NCI-H2591 (Mesothelioma) = tested on: NCI-H2591 (Mesothelioma)
Outline: as §1

[10] = tested on: ONS-76 (Other Solid Carcinomas)
Outline: as §1

[11] = tested on: OS-RC-2 (Kidney Carcinoma)
Outline: as §1

[12] = tested on: PANC-10-05 (Pancreatic Carcinoma)
Outline: as §1

[13] = tested on: SISO (Cervical Carcinoma)
Outline: as §1

[14] = tested on: TT2609-C02 (Thyroid Gland Carcinoma)
Outline: as §1

| Structure (SMILES) | Bliss excess (8-MG-BA (Glioblastoma)) | Bliss excess [1] | Bliss excess [2] | Bliss excess (FU97 (Gastric Carcinoma)) | Bliss excess (GI-ME-N (Neuroblastoma)) | Bliss excess [3] | Bliss excess (Hs-445 (Non-Cancerous)) | Bliss excess (IGR-37 (Melanoma)) | Bliss excess [4] | Bliss excess [5] | Bliss excess [6] | Bliss excess [7] | Bliss excess [8] | Bliss excess [9] | Bliss excess (NCI-H2591 (Mesothelioma)) | Bliss excess [10] | Bliss excess [11] | Bliss excess [12] | Bliss excess [13] | Bliss excess [14] |
| --- | --- | --- | --- | --- | --- | --- | --- | --- | --- | --- | --- | --- | --- | --- | --- | --- | --- | --- | --- | --- |
| CN(C)CCCOc1ccc(-c2ccc3ncc4c(c3c2)n(C2CCOCC2)c(=O)n4C)cn1 [AZD0156] + C=CCn1c(=O)c2cnc(Nc3ccc(N4CCN(C)CC4)cc3)nc2n1-c1cccc(C(C)(C)O)n1 [AZD1775] (first compound max 1 µM, partner max 1 µM) | -0.0587 | -0.0709 | -0.0024 | -0.0101 | -0.0452 | -0.034 | 0.0015 | -0.0159 | -0.0102 | -0.0476 | -0.0358 | -0.0242 | -0.07 | -0.0944 | -0.0306 | -0.0487 | -0.0652 | -0.0519 | -0.0513 | -0.0119 |
| CN(C)CCCOc1ccc(-c2ccc3ncc4c(c3c2)n(C2CCOCC2)c(=O)n4C)cn1 [AZD0156] + CCN(CCO)CCCOc1ccc2c(Nc3cc(CC(=O)Nc4cccc(F)c4)[nH]n3)ncnc2c1 [AZD2811] (first compound max 1 µM, 7x7, partner max 1 µM) | -0.0033 | -0.0637 | -0.0565 | -0.0947 | -0.0488 | -0.0137 | 0.045 | -0.0191 | 0.0161 | 0.0004 | 0.0279 | -0.0274 | -0.0649 | -0.0327 | -0.0204 | -0.0169 | -0.0312 | -0.0169 | 0.0081 | -0.0032 |
| CN(C)CCCOc1ccc(-c2ccc3ncc4c(c3c2)n(C2CCOCC2)c(=O)n4C)cn1 [AZD0156] + C[C@@H]1COCCN1C2=NC(=NC(=C2)C3(CC3)[S@](=N)(=O)C)C4=C5C=CNC5=NC=C4 [AZD6738] (first compound max 1 µM, 7x7, partner max 10 µM) | 0.0389 | -0.0591 | 0.0425 | -0.0353 | -0.015 | 0.0016 | -0.0409 | -0.0153 | 0.0233 | -0.0444 | 0.0296 | -0.0424 | -0.0404 | -0.0766 | -0.0461 | 0.0096 | -0.0419 | -0.0415 | 0.0119 | -0.0067 |
| CN(C)CCCOc1ccc(-c2ccc3ncc4c(c3c2)n(C2CCOCC2)c(=O)n4C)cn1 [AZD0156] + O=C(c1cc(Cc2n[nH]c(=O)c3ccccc23)ccc1F)N1CCN(C(=O)C2CC2)CC1 [Olaparib] (first compound max 3 µM, partner max 3 µM) | 0.079 | -0.0535 | 0.0729 | -0.0154 | -0.0116 | 0.0066 | -0.0211 | -0.0103 | 0.171 | 0.0171 | 0.0269 | -0.0439 | 0.0139 | 0.0117 | -0.0248 | 0.0366 | -0.0432 | 0.0378 | 0.0631 | 0.0251 |
| C=CCn1c(=O)c2cnc(Nc3ccc(N4CCN(C)CC4)cc3)nc2n1-c1cccc(C(C)(C)O)n1 [AZD1775] + C1CN(CCC1(C(=O)N[C@@H](CCO)C2=CC=C(C=C2)Cl)N)C3=NC=NC4=C3C=CN4 [Capivasertib] (first compound max 3 µM, partner max 3 µM) | 0.0277 | -0.0949 | -0.0289 | 0.0946 | -0.0726 | 0.002 | -0.1 | -0.0316 | -0.0146 | -0.0691 | -0.0769 | -0.0389 | -0.0567 | -0.0268 | -0.035 | -0.0258 | -0.085 | -0.102 | -0.102 | 0.0087 |
| C=CCn1c(=O)c2cnc(Nc3ccc(N4CCN(C)CC4)cc3)nc2n1-c1cccc(C(C)(C)O)n1 [AZD1775] + C[C@@H]1COCCN1C2=NC(=NC(=C2)C3(CC3)[S@](=N)(=O)C)C4=C5C=CNC5=NC=C4 [AZD6738] (first compound max 1 µM, partner max 10 µM) | -0.032 | -0.0608 | 0.0691 | -0.0414 | -0.0397 | 0.111 | -0.0017 | 0.0017 | 0.0409 | -0.0445 | -0.0161 | -0.0084 | 0.0216 | 0.0248 | -0.0355 | -0.0256 | -0.0604 | -0.0611 | 0.0461 | -0.0026 |
| CN(CCO)CC[C@H](CSc1ccccc1)Nc1ccc(S(=O)(=O)NC(=O)c2ccc(N3CCC([C@@H](O)c4ccccc4-c4ccc(Cl)cc4)CC3)cc2)cc1S(=O)(=O)C(F)(F)F [AZD4320] + C[C@@H]1COCCN1C2=NC(=NC(=C2)C3(CC3)[S@](=N)(=O)C)C4=C5C=CNC5=NC=C4 [AZD6738] (first compound max 1 µM, 7x7, partner max 10 µM) | 0.0107 | -0.0461 | -0.0365 | -0.0215 | -0.0403 | 0.0289 | 0.0592 | 0.0151 | -0.0276 | 0.0896 | -0.0578 | -0.0055 | -0.0437 | – | -0.0462 | -0.0386 | -0.0807 | -0.0476 | -0.0078 | -0.0542 |
